In PMC3532212 (PLoS ONE, 2012):
Values joined by “and” are separate entries in the source; they are usually repeats but may differ in a detail not shown here. Equal values may be shown once. “Also recorded” adds a separate entry of the source.

How the values were obtained:
[1] = system: mouse and rat experimental autoimmune encephalitis, EAE; parameters: method as in PMID 23436932; details: correlated with reduced circulating lymphocytes and monocytes; cited from earlier work
[2] = CSF concentrations after a single oral dose of FTY720, satellite rats; assay type: in vivo, rat; details: FTY720 3.0 or 10 mg/kg single oral dose, 4, 8, 24, 72-hrs post-dose
Description: Prior to longer-term hypertension studies with FTY720 an acute, single oral-dose study was performed to define the lower and upper limits of a pharmacologically-active dose with respect to acute hemodynamic effects. […] Values of both the parent and metabolite were detectable through at least 72-hrs post-dose. Tissue concentrations in the brain, skeletal muscle, and CSF were also determined in a separate group of satellite rats (please see Supplementary Figure, S2 ). Relative to the vehicle control group, FTY720 elicited dose-dependent and sustained increases in mean arterial pressure after a single oral dose, an effect that reached statistical significance in the 3 and 10 mg/kg dose groups (to 13.5±1.8 and 19.9±2.8 mmHg above baseline, respectively, based on a 24-hr mean values on day 1 vs. 3.6±1.5 mmHg in vehicle controls, Figure 4 , A). […] The acute hemodynamic effects of a single oral dose of BAF312 (0.3, 3.0, and 30 mg/kg) were also quantified.
A blood sample or tissues were harvested from satellite rats at 4, 8, 24, and 72-hrs post-dose. […] (TIF) Click here for additional data file.

rats = system: rats; parameters: method as in PMID 12352874; details: FTY720 5 mg/kg/d; cited from earlier work
[3] = Plasma concentrations after a single oral dose in rats; assay type: in vivo; details: rat; for concentration at 4 hr / concentration at 8 h / concentration at 24 h / concentration at 48 h / concentration at 72 h: male, Sprague Dawley, plasma, mean±SEM; for concentration at 4 hr: 4 hr post-dose; for concentration at 8 h: 8 hr post-dose; for concentration at 24 h: 24 hr post-dose; for concentration at 48 h: 48 hr post-dose; for concentration at 72 h: 72 hr post-dose
Description: (§1) Mean arterial pressure was assessed in conscious, freely moving male Sprague Dawley rats (n = 6–8/group; Charles River) instrumented with telemetry transmitters (DSI-Ponemah) and housed in metabolism cages as previously described, [26]. Tested compounds were solubilized in a 0.5% Methylcellulose/0.015% Tween 80 vehicle that was also dosed alone (p.o./QD, 5 mL/kg) as a control in the study. FTY720 was administered p.o. at 0.3, 1.0, 3.0, 10.0 mg/kg p.o. as a single dose or p.o./QD at 0.5, 1.5, and 5.0 mg/kg in a chronic study. BAF312 was administered p.o/QD at 0.3, 3.0, and 30 mg/kg as a single dose and in a chronic study. Mean arterial pressure and heart rate are shown as 1-hr and/or 24-hr mean values±SEM as described in the results. Blood samples in satellite rats were withdrawn at various timepoints as described in the results for analysis of plasma concentrations of the parent compound and, in the case of FTY720, also the phosphorylated metabolite, (S)-FTY720-P. Statistical analysis for the single-dose acute studies was based on one-way ANOVA to compare the treatment groups vs. vehicle for each time period after dosing (0–24 hrs, 24–48 hrs, and 48–72 hrs); statistical significance (p<0.05) was detected by Dunnett’s post-hoc test to compare treatment with vehicle controls. The statistical analysis in the chronic studies were based on one-way ANOVA with repeated measures to compare the treatment arms; statistical significance (p<0.05) was detected by Dunnett’s post-hoc test to compare treatment with vehicle controls.

patients = system: patients; parameters: method as in PMID 20089954; details: 1-yr trial; cited from earlier work
[4] = system: conscious, telemetry-instrumented rats; assay: Telemetry-instrumented conscious rats, repeat-dosing hemodynamics; assay type: in vivo; details: conscious rat; for mean arterial pressure increase relative to baseline, 24-hr mean over the treatment period: vehicle 3.7±0.5; for mean arterial pressure, average change in 24-mean values: 14-days of treatment
Description: as §1, with “BAF312 was administered p.o/QD at 0.3, 3.0, and 30 mg/kg as a single dose and in a chronic study.” left out

[5] = system: conscious, telemetry-instrumented rats; assay: Telemetry-instrumented conscious rats, single oral dose hemodynamics; assay type: in vivo; details: conscious rat; for mean arterial pressure above baseline, 24-hr mean: vehicle 3.6±1.5
Description: as §1

Human S1P1 = biological target: T1, Human S1P1 (Homo sapiens, UniProt P21453); assay: B arrestin recruitment assay, Tango EDG1-bla U2OS cells; assay type: cell-based; details: 18 hours agonist incubation
T1 construct: host or cells: U2OS (Tango EDG1-bla)
Description: Tango™ EDG1-bla U2OS cells (Human S1P1), Tango™ EDG3-bla U2OS cells (human S1P3), Tango™ EDG6-bla U2OS cells (human S1P4) and Tango™ EDG8-bla U2OS cells (human S1P5) cell lines were cultured and assayed according to manufacturers instructions with one modification; agonists incubated on the cells for 18 hours prior to addition of the GenBlazer substrate. Final DMSO concentration in the assay is 1%.

[6] = FTY720 0.3 mg/kg single oral dose
[7] = FTY720 1.0 mg/kg single oral dose
[8] = FTY720 3.0 mg/kg single oral dose
[9] = FTY720 10.0 mg/kg single oral dose
[10] = BAF312 0.3, 3.0, 30 mg/kg single oral dose

T1 sequence (P21453 whole entry): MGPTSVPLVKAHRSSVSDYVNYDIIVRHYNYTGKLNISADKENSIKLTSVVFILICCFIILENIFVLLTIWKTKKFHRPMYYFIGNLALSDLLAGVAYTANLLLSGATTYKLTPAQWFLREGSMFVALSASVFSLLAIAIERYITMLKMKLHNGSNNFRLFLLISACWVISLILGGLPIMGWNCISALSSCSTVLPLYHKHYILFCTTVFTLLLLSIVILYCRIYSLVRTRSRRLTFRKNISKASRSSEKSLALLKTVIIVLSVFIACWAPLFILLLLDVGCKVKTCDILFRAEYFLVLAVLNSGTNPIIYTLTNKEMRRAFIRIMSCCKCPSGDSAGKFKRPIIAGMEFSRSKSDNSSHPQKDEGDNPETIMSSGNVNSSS

## CCCCCCCCc1ccc(CCC(N)(CO)CO)cc1 [FTY720]
[1]
  efficacious dose in EAE: 0.3 mg/kg
[2]
  concentration in the CSF: No compound was detectable
rats
  24-hr sodium excretion values and fractional excretion of sodium: elicited reductions
[3]; [6]
  concentration at 4 hr: 10 ± 5 nM
  concentration at 8 h: 14 ± 5 nM
  concentration at 24 h: 15 ± 3 nM
  concentration at 48 h: 13 ± 1 nM
  concentration at 72 h: 7 ± 2 nM
  Plasma concentration at Tmax: 15 ± 3 nM
[3]; [7]
  concentration at 4 hr: 25 ± 3 nM
  concentration at 8 h: 36 ± 5 nM
  concentration at 24 h: 22 ± 2 nM
  concentration at 48 h: 12 ± 1 nM
  concentration at 72 h: 10 ± 1 nM
  Plasma concentration at Tmax: 36 ± 5 nM
[3]; [8]
  concentration at 4 hr: 62 ± 4 nM
  concentration at 8 h: 79 ± 17 nM
  concentration at 24 h: 91 ± 19 nM
  concentration at 48 h: 53 ± 15 nM
  concentration at 72 h: 34 ± 4 nM
  Plasma concentration at Tmax: 91 ± 19 nM
[3]; [9]
  concentration at 4 hr: 146 ± 18 nM
  concentration at 8 h: 274 ± 46 nM
  concentration at 24 h: 301 ± 31 nM
  concentration at 48 h: 143 ± 16 nM
  concentration at 72 h: 101 ± 21 nM
[3]; FTY720 10 mg/kg single oral dose
  Plasma concentration at Tmax: 301 ± 31 nM
[3]; FTY720 single oral dose
  time post-dose through which plasma values were detectable: at least 72 hrs
patients
  hypertension in patients: 2–3 mmHg
[4]; FTY720 0.5 mg/kg p.o./QD repeat dosing, vehicle −2±1
  24-hr mean change in heart rate: 11±2 beats/min
[4]; FTY720 0.5 mg/kg/d p.o./QD, 0.5 mg/kg/day
  mean arterial pressure increase relative to baseline, 24-hr mean over the treatment period: 8.4 mmHg and 8.4±0.4 mmHg
[4]; FTY720 1.5 mg/kg p.o./QD repeat dosing, vehicle −2±1
  24-hr mean change in heart rate: 1±1 beats/min
[4]; FTY720 1.5 mg/kg/d p.o./QD, 1.5 mg/kg/day
  mean arterial pressure increase relative to baseline, 24-hr mean over the treatment period: 12.8 mmHg and 12.8±0.4 mmHg
[4]; FTY720 5.0 mg/kg p.o./QD repeat dosing, vehicle −2±1
  24-hr mean change in heart rate: 1±3 beats/min
[4]; FTY720 5.0 mg/kg/d p.o./QD, 5 mg/kg/day
  mean arterial pressure increase relative to baseline, 24-hr mean over the treatment period: 16.2 mmHg and 16.2±0.8 mmHg
[4]; FTY720 0.5, 1.5, 5.0 mg/kg/d p.o.
  bradycardia during repeat dosing: no acute or sustained bradycardia
[5]; FTY720 3 mg/kg single oral dose, day 1
  mean arterial pressure above baseline, 24-hr mean: 13.5±1.8 mmHg
[5]; FTY720 10 mg/kg single oral dose, day 1
  mean arterial pressure above baseline, 24-hr mean: 19.9±2.8 mmHg
[5]; FTY720 10 mg/kg single oral dose, day 1, vehicle 15±3
  heart rate change from baseline, 24-hr mean: −13±6 beats/min
[5]; FTY720 single oral dose, after day 1 up to 72 hours
  changes in heart rate vs vehicle after day 1: not different from vehicle control rats

## CCc1cc(/C(C)=N/OCc2ccc(C3CCCCC3)c(C(F)(F)F)c2)ccc1CN1CC(C(=O)O)C1 [BAF312]
Human S1P1
  EC50: 2.5 nM
[1]
  efficacious dose in EAE: 0.3 mg/kg
[4]; BAF312 0.3 mg/kg/d p.o./QD
  mean arterial pressure, average change in 24-mean values: 3.0±0.5 mmHg
[4]; BAF312 3 mg/kg dose group (so in the source), 14-day study
  24-hr mean change in heart rate: −2±2 beats/min
[4]; BAF312 3.0 mg/kg/d p.o./QD
  mean arterial pressure, average change in 24-mean values: 1.1±0.5 mmHg
[4]; BAF312 10 mg/kg dose group (so in the source), 14-day study
  24-hr mean change in heart rate: −2±3 beats/min
[4]; BAF312 30 mg/kg dose group, 14-day study
  24-hr mean change in heart rate: −2±4 beats/min
[4]; BAF312 30 mg/kg/d p.o./QD
  mean arterial pressure, average change in 24-mean values: 0.1±0.5 mmHg
[4]; BAF312 0.3, 3.0, 30.0 mg/kg/d p.o.
  effect on blood pressure / mean arterial pressure during repeat dosing: no significant effect; also recorded: no significant increase
[4]; BAF312 any dose group, 14-day study
  bradycardia during repeat dosing: no bradycardia was observed
[5]; [10]
  effect on heart rate: no statistically significant effect
  effect on mean arterial pressure: no statistically significant effect
